# Test results taken from PubChem BioAssay (NCI).
#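 Where inhibition never reached the appropriate level, the endpoint shown equals the highest concentration tested. Otherwise, values were interpolated linearly from a five-concentration, 48-hour dose response in 96-well plates. The concentration for full growth arrest is given as TGI.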
# System: HL-60(TB) leukemia
# Assay: inhibition of tumour cell growth, NCI panel, 48 h
row,Structure (SMILES),TGI
1,Nc1nc(-c2ccco2)cc(-c2ccco2)n1,> 100 µM

# System: HOP-18 NSCLC
# Assay: inhibition of tumour cell growth, NCI panel, 48 h
row,Structure (SMILES),TGI
1,C=CCOC(C)n1c(C)cc(=O)n(C(C)OCC=C)c1=O (stereo unspecified),> 100 µM
2,O=C(c1ccccc1)N1CCN2CCN=C(c3ccccc3)C21c1ccccc1 (stereo unspecified),> 100 µM
3,CCCCCCCCCCCCCCCC/C(C(=O)OC)=C(/O)C(=O)OCC,> 100 µM

# System: HOP-62 NSCLC
# Assay: inhibition of tumour cell growth, NCI panel, 48 h
row,Structure (SMILES),TGI
1,C=CCOC(C)n1c(C)cc(=O)n(C(C)OCC=C)c1=O (stereo unspecified),> 100 µM
2,O=C(c1ccccc1)N1CCN2CCN=C(c3ccccc3)C21c1ccccc1 (stereo unspecified),> 100 µM
3,CCCCCCCCCCCCCCCC/C(C(=O)OC)=C(/O)C(=O)OCC,> 100 µM
4,Nc1nc(-c2ccco2)cc(-c2ccco2)n1,> 100 µM

# System: HOP-92 NSCLC
# Assay: inhibition of tumour cell growth, NCI panel, 48 h
row,Structure (SMILES),TGI
1,C=CCOC(C)n1c(C)cc(=O)n(C(C)OCC=C)c1=O (stereo unspecified),> 100 µM
2,O=C(c1ccccc1)N1CCN2CCN=C(c3ccccc3)C21c1ccccc1 (stereo unspecified),> 100 µM
3,CCCCCCCCCCCCCCCC/C(C(=O)OC)=C(/O)C(=O)OCC,84.9 µM

# System: HT29 colon
# Assay: inhibition of tumour cell growth, NCI panel, 48 h
row,Structure (SMILES),TGI
1,C=CCOC(C)n1c(C)cc(=O)n(C(C)OCC=C)c1=O (stereo unspecified),> 100 µM
2,O=C(c1ccccc1)N1CCN2CCN=C(c3ccccc3)C21c1ccccc1 (stereo unspecified),> 100 µM
3,CCCCCCCCCCCCCCCC/C(C(=O)OC)=C(/O)C(=O)OCC,> 100 µM
4,Nc1nc(-c2ccco2)cc(-c2ccco2)n1,> 100 µM

# System: IGROV1 ovarian
# Assay: inhibition of tumour cell growth, NCI panel, 48 h
row,Structure (SMILES),TGI
1,C=CCOC(C)n1c(C)cc(=O)n(C(C)OCC=C)c1=O (stereo unspecified),> 100 µM
2,O=C(c1ccccc1)N1CCN2CCN=C(c3ccccc3)C21c1ccccc1 (stereo unspecified),> 100 µM
3,CCCCCCCCCCCCCCCC/C(C(=O)OC)=C(/O)C(=O)OCC,> 100 µM
4,Nc1nc(-c2ccco2)cc(-c2ccco2)n1,> 100 µM

# System: K-562 leukemia
# Assay: inhibition of tumour cell growth, NCI panel, 48 h
row,Structure (SMILES),TGI
1,C=CCOC(C)n1c(C)cc(=O)n(C(C)OCC=C)c1=O (stereo unspecified),> 100 µM
2,O=C(c1ccccc1)N1CCN2CCN=C(c3ccccc3)C21c1ccccc1 (stereo unspecified),> 100 µM
3,CCCCCCCCCCCCCCCC/C(C(=O)OC)=C(/O)C(=O)OCC,> 100 µM
4,Nc1nc(-c2ccco2)cc(-c2ccco2)n1,> 100 µM

# System: KM12 colon
# Assay: inhibition of tumour cell growth, NCI panel, 48 h
row,Structure (SMILES),TGI
1,O=C(c1ccccc1)N1CCN2CCN=C(c3ccccc3)C21c1ccccc1 (stereo unspecified),> 100 µM
2,CCCCCCCCCCCCCCCC/C(C(=O)OC)=C(/O)C(=O)OCC,> 100 µM
3,Nc1nc(-c2ccco2)cc(-c2ccco2)n1,> 100 µM

# System: KM20L2 colon
# Assay: inhibition of tumour cell growth, NCI panel, 48 h
row,Structure (SMILES),TGI
1,C=CCOC(C)n1c(C)cc(=O)n(C(C)OCC=C)c1=O (stereo unspecified),> 100 µM
2,O=C(c1ccccc1)N1CCN2CCN=C(c3ccccc3)C21c1ccccc1 (stereo unspecified),> 100 µM
3,CCCCCCCCCCCCCCCC/C(C(=O)OC)=C(/O)C(=O)OCC,> 100 µM
4,Nc1nc(-c2ccco2)cc(-c2ccco2)n1,> 100 µM

# System: LOX IMVI melanoma
# Assay: inhibition of tumour cell growth, NCI panel, 48 h
row,Structure (SMILES),TGI
1,O=C(c1ccccc1)N1CCN2CCN=C(c3ccccc3)C21c1ccccc1 (stereo unspecified),> 100 µM
2,CCCCCCCCCCCCCCCC/C(C(=O)OC)=C(/O)C(=O)OCC,> 100 µM
3,Nc1nc(-c2ccco2)cc(-c2ccco2)n1,> 100 µM

# System: LXFL 529 NSCLC
# Assay: inhibition of tumour cell growth, NCI panel, 48 h
row,Structure (SMILES),TGI
1,C=CCOC(C)n1c(C)cc(=O)n(C(C)OCC=C)c1=O (stereo unspecified),> 100 µM
2,O=C(c1ccccc1)N1CCN2CCN=C(c3ccccc3)C21c1ccccc1 (stereo unspecified),> 100 µM
3,CCCCCCCCCCCCCCCC/C(C(=O)OC)=C(/O)C(=O)OCC,> 100 µM
4,Nc1nc(-c2ccco2)cc(-c2ccco2)n1,> 100 µM

# System: M14 melanoma
# Assay: inhibition of tumour cell growth, NCI panel, 48 h
row,Structure (SMILES),TGI
1,C=CCOC(C)n1c(C)cc(=O)n(C(C)OCC=C)c1=O (stereo unspecified),> 100 µM
2,O=C(c1ccccc1)N1CCN2CCN=C(c3ccccc3)C21c1ccccc1 (stereo unspecified),> 100 µM
3,CCCCCCCCCCCCCCCC/C(C(=O)OC)=C(/O)C(=O)OCC,> 100 µM
4,Nc1nc(-c2ccco2)cc(-c2ccco2)n1,> 100 µM

# System: M19-MEL melanoma
# Assay: inhibition of tumour cell growth, NCI panel, 48 h
row,Structure (SMILES),TGI
1,C=CCOC(C)n1c(C)cc(=O)n(C(C)OCC=C)c1=O (stereo unspecified),> 100 µM
2,O=C(c1ccccc1)N1CCN2CCN=C(c3ccccc3)C21c1ccccc1 (stereo unspecified),> 100 µM
3,CCCCCCCCCCCCCCCC/C(C(=O)OC)=C(/O)C(=O)OCC,> 100 µM
4,Nc1nc(-c2ccco2)cc(-c2ccco2)n1,> 100 µM

# System: MALME-3M melanoma
# Assay: inhibition of tumour cell growth, NCI panel, 48 h
row,Structure (SMILES),TGI
1,C=CCOC(C)n1c(C)cc(=O)n(C(C)OCC=C)c1=O (stereo unspecified),> 100 µM
2,O=C(c1ccccc1)N1CCN2CCN=C(c3ccccc3)C21c1ccccc1 (stereo unspecified),> 100 µM
3,CCCCCCCCCCCCCCCC/C(C(=O)OC)=C(/O)C(=O)OCC,> 100 µM
4,Nc1nc(-c2ccco2)cc(-c2ccco2)n1,> 100 µM

# System: MOLT-4 leukemia
# Assay: inhibition of tumour cell growth, NCI panel, 48 h
row,Structure (SMILES),TGI
1,C=CCOC(C)n1c(C)cc(=O)n(C(C)OCC=C)c1=O (stereo unspecified),> 100 µM
2,O=C(c1ccccc1)N1CCN2CCN=C(c3ccccc3)C21c1ccccc1 (stereo unspecified),> 100 µM
